According to ChEMBL document CHEMBL1201862, “PubChem BioAssay data set” (2004):
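Five compound concentrations were applied to cells in 96-well plates for 48 hours; endpoints were derived by simple linear interpolation of the resulting dose-response curve. GI50 marks 50% less growth.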 Active and inactive are the calls of the source. Cut-off read from the data, not from the text of the source: active = GI50 up to about 1.1 µM and inactive = higher.

Key:
Experiment in all cases: NCI tumour cell line growth inhibition, 48 h
SNB-19 = test system: SNB-19
CAKI-1 = test system: CAKI-1
DU-145 = test system: DU-145
UACC-62 = test system: UACC-62
Malme-3M = test system: Malme-3M
OVCAR-4 = test system: OVCAR-4
SF-295 = test system: SF-295
SK-MEL-2 = test system: SK-MEL-2
CCRF-CEM = test system: CCRF-CEM
SF-539 = test system: SF-539
Hs-578T = test system: Hs-578T
K562 = test system: K562
PC-3 = test system: PC-3
NCI-H23 = test system: NCI-H23
NCI/ADR-RES = test system: NCI/ADR-RES
MDA-N = test system: MDA-N
HL-60 = test system: HL-60
T47D = test system: T47D
SNB-75 = test system: SNB-75
HOP-92 = test system: HOP-92

Structure (SMILES)	GI50 (SNB-19)	GI50 (CAKI-1)	GI50 (DU-145)	GI50 (UACC-62)	GI50 (Malme-3M)	GI50 (OVCAR-4)	GI50 (SF-295)	GI50 (SK-MEL-2)	GI50 (CCRF-CEM)	GI50 (SF-539)	GI50 (Hs-578T)	GI50 (K562)	GI50 (PC-3)	GI50 (NCI-H23)	GI50 (NCI/ADR-RES)	GI50 (MDA-N)	GI50 (HL-60)	GI50 (T47D)	GI50 (SNB-75)	GI50 (HOP-92)
O=C1CCC(c2ccccc2)=NN1c1nc2ccccc2s1	35.6 µM (inactive)	32.4 µM (inactive)	22.9 µM (inactive)	30.3 µM (inactive)	32.2 µM (inactive)	36.7 µM (inactive)	25.7 µM (inactive)	20.1 µM (inactive)	23.1 µM (inactive)	24.5 µM (inactive)	36 µM (inactive)	29.8 µM (inactive)	26.1 µM (inactive)	30.2 µM (inactive)	28.7 µM (inactive)	27.9 µM (inactive)	41.3 µM (inactive)	11.9 µM (inactive)	22.3 µM (inactive)	26.7 µM (inactive)
CCOc1ccc(C2c3[nH]c4ccccc4c3CCN2C(=O)c2cccs2)cc1 (configuration not stated)	23.8 µM (inactive)	9.14 µM (inactive)	68.9 µM (inactive)	6.04 µM (inactive)	88.5 µM (inactive)	4.22 µM (inactive)	6.03 µM (inactive)	78.3 µM (inactive)	3.48 µM (inactive)	3.51 µM (inactive)	63.1 µM (inactive)	2.34 µM (inactive)	4.59 µM (inactive)	56.4 µM (inactive)	6.43 µM (inactive)	6.55 µM (inactive)	9.04 µM (inactive)	5.9 µM (inactive)	35.6 µM (inactive)	> 100 µM (inactive)
COc1c(Cl)ccc(Cl)c1-c1nnc(-c2c(Cl)c(Cl)c(Cl)c(Cl)c2-c2nc3cc(C(=O)c4ccccc4)ccc3[nH]2)o1	62.2 µM (inactive)	> 100 µM (inactive)	> 100 µM (inactive)		47.1 µM (inactive)	43.5 µM (inactive)	29.4 µM (inactive)	37.7 µM (inactive)	24.9 µM (inactive)	22.1 µM (inactive)	42.2 µM (inactive)	28.9 µM (inactive)	46 µM (inactive)	78.2 µM (inactive)	28.3 µM (inactive)	20 µM (inactive)	34.5 µM (inactive)	> 100 µM (inactive)	33.5 µM (inactive)	53.7 µM (inactive)
Cc1ccc(C2SCC(=O)N2c2ccc(-n3c(-c4ccccc4)nc4ccccc4c3=O)cc2)cc1 (configuration not stated)	26.9 µM (inactive)	30.1 µM (inactive)	31 µM (inactive)	11.5 µM (inactive)	22 µM (inactive)	22.8 µM (inactive)	14.7 µM (inactive)	20.8 µM (inactive)	8.18 µM (inactive)	12.4 µM (inactive)	10 µM (inactive)	7.26 µM (inactive)	12.7 µM (inactive)	36.4 µM (inactive)	19.3 µM (inactive)	20.9 µM (inactive)	19.5 µM (inactive)	15.5 µM (inactive)	18.3 µM (inactive)	15.2 µM (inactive)
CC(C)(C)c1ccc(-c2nnc(SCc3ccc(Cl)cc3)n2-c2cccc(C(F)(F)F)c2)cc1	36.1 µM (inactive)	73.5 µM (inactive)	> 85.3 µM (inactive)	22.5 µM (inactive)	29.4 µM (inactive)	7.8 µM (inactive)	8.43 µM (inactive)	16.8 µM (inactive)	7.87 µM (inactive)	54.8 µM (inactive)	45.8 µM (inactive)	4.25 µM (inactive)	6.98 µM (inactive)	10.9 µM (inactive)	12.4 µM (inactive)	24.2 µM (inactive)	0.0867 µM (active)	5.08 µM (inactive)	27.5 µM (inactive)	19.8 µM (inactive)
C=CCC1=CC2(OC)C(=O)C(OC)(OC)C1C1C(OC)(OC)C(=O)C(OC)=CC12CC=C (configuration not stated)	> 100 µM (inactive)	> 100 µM (inactive)	> 100 µM (inactive)	> 100 µM (inactive)	> 100 µM (inactive)	> 100 µM (inactive)	> 100 µM (inactive)	> 100 µM (inactive)	> 100 µM (inactive)	> 100 µM (inactive)	> 100 µM (inactive)	> 100 µM (inactive)	> 100 µM (inactive)	> 100 µM (inactive)	> 100 µM (inactive)	> 100 µM (inactive)	> 100 µM (inactive)	> 100 µM (inactive)	> 100 µM (inactive)	> 100 µM (inactive)
CCOC(=O)C1=C(C)NC(=S)NC1c1cccc(O)c1 (configuration not stated) [MONASTROL]	76.4 µM (inactive)	63.8 µM (inactive)	76.6 µM (inactive)	36.6 µM (inactive)	60.3 µM (inactive)	66.1 µM (inactive)	30.5 µM (inactive)	32.4 µM (inactive)	34.7 µM (inactive)	44.8 µM (inactive)	45.7 µM (inactive)	32.7 µM (inactive)	36.1 µM (inactive)	59.8 µM (inactive)	> 100 µM (inactive)	18.2 µM (inactive)	25.7 µM (inactive)	34.9 µM (inactive)	37.2 µM (inactive)	32.4 µM (inactive)
Cc1nc2c(C)c3c([nH]c4ccc(Cl)cc43)c(C)c2c(O)c1C	15.7 µM (inactive)	5.71 µM (inactive)	5.71 µM (inactive)	6.44 µM (inactive)	8.43 µM (inactive)	7.24 µM (inactive)	5.89 µM (inactive)	65.2 µM (inactive)	2.91 µM (inactive)	6.21 µM (inactive)	15.9 µM (inactive)	7.5 µM (inactive)	5.89 µM (inactive)	4.68 µM (inactive)	8.39 µM (inactive)	6.73 µM (inactive)	2.24 µM (inactive)	4.66 µM (inactive)	16.8 µM (inactive)	9.53 µM (inactive)
CC1(C)CN=C(Nc2ccc(F)c(Cl)c2)S1	> 100 µM (inactive)	> 100 µM (inactive)	> 100 µM (inactive)	> 100 µM (inactive)	> 100 µM (inactive)	> 100 µM (inactive)	> 100 µM (inactive)	> 100 µM (inactive)	> 100 µM (inactive)	> 100 µM (inactive)	> 100 µM (inactive)	> 100 µM (inactive)	> 100 µM (inactive)	> 100 µM (inactive)	> 100 µM (inactive)	> 100 µM (inactive)	> 100 µM (inactive)	> 100 µM (inactive)	> 100 µM (inactive)	> 100 µM (inactive)
Cc1sccc1C(=S)Nc1ccc(Cl)c(/C=N/OC(C)(C)C)c1		12 µM (inactive)	14.6 µM (inactive)	16.6 µM (inactive)	15.1 µM (inactive)	15.2 µM (inactive)	16.7 µM (inactive)	15.5 µM (inactive)	21.3 µM (inactive)	31.5 µM (inactive)	22.3 µM (inactive)		15.4 µM (inactive)	15.4 µM (inactive)	17.8 µM (inactive)	13.3 µM (inactive)	16.9 µM (inactive)	10.6 µM (inactive)	21.1 µM (inactive)	13.9 µM (inactive)
